Data as given in PubChem BioAssay AID256 (DTP/NCI, 2004).
Where “and” joins values, the source holds several entries; their conditions need not be identical. Equal entries are not always repeated. Inconclusive results and toxic doses are left out. The calls were made as follows: active = survival T/C of 150% or more; inactive = T/C below 125% in these data.

Test system: CD2F1 mice, L1210 leukemia ip, survival T/C
Assay: NCI In Vivo Anticancer Drug Screen. Data for tumor model L1210 Leukemia (intraperitoneal) in CD2F1 (CDF1) mice
Details: endpoint: mean survival time, higher = longer survival
How it was run: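 In this screen, transplantable tumors were grown in mice given either the compound or its vehicle. Results were expressed as the treated measurement relative to the control measurement.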

[1] = dose: 100.0 mg/kg/injection, schedule: Q01DX001 (ip), vehicle: Klucel (hydroxypropylcellulose) (HPC)
[2] = dose: 200.0 mg/kg/injection, schedule: Q01DX001 (ip), vehicle: Klucel (hydroxypropylcellulose) (HPC)
[3] = dose: 200.0 mg/kg/injection, schedule: Q04DX003 (ip), vehicle: saline with Tween-80
[4] = dose: 400.0 mg/kg/injection, schedule: Q04DX003 (ip), vehicle: saline with Tween-80
[5] = dose: 100.0 mg/kg/injection, schedule: Q01DX009 (ip), vehicle: saline with Tween-80
[6] = dose: 200.0 mg/kg/injection, schedule: Q01DX009 (ip), vehicle: saline with Tween-80
[7] = dose: 100.0 mg/kg/injection, schedule: Q01DX001 (ip), vehicle: saline with Tween-80
[8] = dose: 200.0 mg/kg/injection, schedule: Q01DX001 (ip), vehicle: saline with Tween-80
[9] = dose: 100.0 mg/kg/injection, schedule: Q04DX003 (ip), vehicle: saline with Tween-80
[10] = dose: 12.5 mg/kg/injection, schedule: Q04DX003 (ip), vehicle: saline with Tween-80
[11] = dose: 25.0 mg/kg/injection, schedule: Q04DX003 (ip), vehicle: saline with Tween-80
[12] = dose: 50.0 mg/kg/injection, schedule: Q04DX003 (ip), vehicle: saline with Tween-80

Measured: T/C

CC(=O)Nc1ccc(CC#N)cc1
inactive: dose: 5.0 mg/kg/injection, schedule: Q04DX003 (ip), vehicle: saline sonified 103 % of control | dose: 10.0 mg/kg/injection, schedule: Q04DX003 (ip), vehicle: saline sonified 114 % of control | dose: 20.0 mg/kg/injection, schedule: Q04DX003 (ip), vehicle: saline sonified 94 % of control

O=C(N/N=C/c1ccc2c(c1)CCC2)c1ccccc1[N+](=O)[O-]
inactive: [1] 95 % of control | [2] 94 % of control | [3] 89 % of control | dose: 400.0 mg/kg/injection, schedule: Q01DX001 (ip), vehicle: Klucel (hydroxypropylcellulose) (HPC) 97 % of control | [4] 96 % of control

O/N=C1\C=C2C/C(=N/O)C=C2C1
inactive: dose: 50.0 mg/kg/injection, schedule: Q01DX009 (ip), vehicle: saline with Tween-80 100 % of control | [5] 96 % of control | [6] 96 % of control

CCN(CC)CC(COC)Oc1cc(C)ccc1C(C)C (stereo unspecified)
inactive: dose: 100.0 mg/kg/injection, schedule: Q04DX003 (ip), vehicle: Klucel (hydroxypropylcellulose) (HPC) 92 % of control | dose: 200.0 mg/kg/injection, schedule: Q04DX003 (ip), vehicle: Klucel (hydroxypropylcellulose) (HPC) 93 % of control

Cc1cc(C)c2c(C#N)cn(-c3cccc(Cl)c3)c2n1
inactive: dose: 100.0 mg/kg/injection, schedule: Q04DX003 (ip), vehicle: saline 97 % of control

CC(C)=NNc1cc(N)nc2c1ncn2C1OC(CO)C(O)C1O (stereo unspecified)
inactive: dose: 50.0 mg/kg/injection, schedule: Q01DX005 (ip), vehicle: water 90 % of control | dose: 100.0 mg/kg/injection, schedule: Q01DX005 (ip), vehicle: water 94 % of control | dose: 200.0 mg/kg/injection, schedule: Q01DX005 (ip), vehicle: water 104 % of control

Cc1ccc(S(=O)(=O)OC(c2ccc(C(OS(=O)(=O)c3ccc(C)cc3)(C(F)(F)F)C(F)(F)F)cc2)(C(F)(F)F)C(F)(F)F)cc1
inactive: [7] 96 % of control | [8] 95 % of control | dose: 400.0 mg/kg/injection, schedule: Q01DX001 (ip), vehicle: saline with Tween-80 90 % of control

CCN(CC)Cc1cc(Nc2cc(C)nc(/N=C(\N)Nc3cc(Cl)cc(Cl)c3)n2)ccc1O
inactive: dose: 12.5 mg/kg/injection, schedule: Q01DX009 (ip), vehicle: Klucel (hydroxypropylcellulose) (HPC) 93 % of control | dose: 25.0 mg/kg/injection, schedule: Q01DX009 (ip), vehicle: Klucel (hydroxypropylcellulose) (HPC) 102 % of control | dose: 25.0 mg/kg/injection, schedule: Q04DX002 (ip), vehicle: saline with Tween-80 97 % of control | dose: 50.0 mg/kg/injection, schedule: Q01DX009 (ip), vehicle: Klucel (hydroxypropylcellulose) (HPC) 105 % of control | dose: 50.0 mg/kg/injection, schedule: Q04DX002 (ip), vehicle: saline with Tween-80 94 % of control | [1] 95 % of control | dose: 100.0 mg/kg/injection, schedule: Q04DX002 (ip), vehicle: saline with Tween-80 94 % of control | [2] 115 % of control

O=C(O)CNC(=O)C(Br)Cc1ccccc1 (stereo unspecified)
inactive: [9] 101 % of control | [3] 101 % of control | [4] 103 % of control

COC(=O)C(Br)C(Br)c1ccccc1 (stereo unspecified)
inactive: [5] 101 % of control | [9] 103 % of control | [6] 101 % of control | [3] 106 % of control | dose: 400.0 mg/kg/injection, schedule: Q01DX009 (ip), vehicle: saline with Tween-80 95 % of control | [4] 106 % of control

c1ccc2c(NC3=NCCO3)c3ccccc3nc2c1
inactive: [10] 93 % of control | [11] 96 % of control

CCCN(CCC)S(=O)(=O)c1ccc(NC(=O)Oc2cc(C)ccc2C(C)C)cc1
inactive: dose: 100.0 mg/kg/injection, schedule: Q01DX001 (ip), vehicle: saline 100 % of control | dose: 200.0 mg/kg/injection, schedule: Q01DX001 (ip), vehicle: saline 95 % of control | dose: 400.0 mg/kg/injection, schedule: Q01DX001 (ip), vehicle: saline 94 % of control

Cc1cccc(CC(F)F)c1
inactive: [12] 109 % of control | [7] 104 % of control | [9] 97 % of control | [8] 103 % of control | [3] 96 % of control

c1ccc(COCCOCc2ccccc2)cc1
inactive: [9] 96 % of control | [3] 97 % of control | [4] 108 % of control

O=C(/C=C(\Cl)C(=O)NO)NO
inactive: dose: 6.25 mg/kg/injection, schedule: Q01DX009 (ip), vehicle: saline 101 % of control and 103 % of control | dose: 12.5 mg/kg/injection, schedule: Q01DX009 (ip), vehicle: saline 94 % of control and 104 % of control | dose: 25.0 mg/kg/injection, schedule: Q01DX009 (ip), vehicle: saline 95 % of control and 100 % of control | dose: 50.0 mg/kg/injection, schedule: Q01DX009 (ip), vehicle: saline 115 % of control and 108 % of control | dose: 100.0 mg/kg/injection, schedule: Q01DX009 (ip), vehicle: saline 113 % of control and 95 % of control

C1CCCCCC2=C(CCCC1)CCCO2
inactive: dose: 6.25 mg/kg/injection, schedule: Q04DX003 (ip), vehicle: saline with Tween-80 91 % of control | [10] 91 % of control | [11] 86 % of control | [12] 89 % of control | [9] 94 % of control | [3] 94 % of control
